Results: patent publication US6225307A, “Viral treatment” (priority 2000, dated 2001)

Test system: HIV-1 cell line, CEMIIIB
Test: Long term in vitro study, CEMIIIB cells, reverse transcriptase analysis
Assay type: cell-based
Set-up: Reverse transcriptase data: unit not given here
Procedure: A microtiter-based reveres transcriptase (RT) reaction is utilized (Buckheit et al (1991) AIDS Research and Human Retroviruses 7:295-302). Tritiated thymidine triphosphate (NEN)(TTP) is resuspended in distilled water at 5 Ci/ml. Poly rA and oligo dT are prepared as a stock solution which is kept at -20° C. The RT reaction buffer is prepared fresh on a daily basis and consists of 125 μl 1M EGTA, 125 μl water, 125 μl Triton X-100, 50 μl Tris (pH 7.4), 50 μl MDDT, and 40 μl 1M MgCl2. These three solutions are mixed together in a ratio of 1 part TTP, 2.5 parts poly rA:oligo dT, 2.5 parts reaction buffer and 4 parts distilled water. Ten microliters of this reaction mixture is placed in a round bottom microtiter place and 15 μl of virus containing supernatant is added and mixed. The plate is incubated at 37° C. and incubated for 60 minutes. Following reaction, the reaction volume is spotted onto filter mats, washed 6 times for 5 minutes each in a 5% sodium phosphate buffer, 2 times for 1 minute each in distilled water, 2 times for 1 minute each in 70% ethanol, and then dried. The dried filter mat is placed in a plastic sample bag, Betaplate scintillation fluid is added and the bag is heat sealed. Incorporated radioactivity is quantified utilizing a Wallac Microbeta scintillation counter.
Acute infection of most established human cell lines with HIV- I results in the eventual establishment of a constitutive virus-producing chronically infected cell line. The cells can be passaged for long periods of time in culture without loss of virus production. These cells may be utilized to evaluate the effects of anti-HIV compounds on syncytium formation or to evaluate the effects of anti-HIV compounds on levels of virus production from these cells. […] Each of the cells contains an integrated HIV genome or provirus. Chronically infected CEM, H9 and U937 cell lines have been prepared and cultured by Southern Research Institute, Frederick Md. and are available from them.
CEM-SS cells chronically infected with HIV isolate, for example SKI (CEM-SKI) are cultured in RPM1640 tissue culture medium supplemented with 10% fetal bovine serum and antibiotics. Selection is performed by culturing the cells in the presence of the compound to be tested in T25 flasks. CEM-SKI or other infected cells with no added drug are used as the control cells. Cells are allowed to grow to a density of approximately 1×10^6 cells/ml and are then passaged at a 1:10 dilution. After a period of time, usually one week intervals of drug treatment, cells are evaluated to determine if the inhibitory activity of the compound has been affected by treatment of the cells with either compounds. The drug concentration in the flask is then increased two-fold and the cells maintained as above.
The cell populations contain integrated copies of the HIV genome and constitutively produce HIV at relatively high levels or are latently infected and only produce virus after stimulation with phorbol esters, tumor necrosis factor or IL6(U1 and ACH2). Reductions in virus products were observed when quantifying supernatant reverse transcriptase activity,
Toxicity Values are measured by XTT and activity of the compound in the tests is measured by a Reverse Transcriptase analysis.
A long term in vitro study of 3-hexahydro-3-ethyl-1-methyl-2-oxo-1H-azepin-3-yl)phenyl ester of 4-chlorophenyl carbamic acid against an HIV-1 cell line, CEMIIIB was conducted at three different levels. The results with CEIIIB cells were reported at weekly intervals. The CEMIIIB is a […] of the CEMSS cell line and is a chronic HIV cell line.

For `CCC1(c2cccc(OC(=O)Nc3ccc(Cl)cc3)c2)CCCCN(C)C1=O` (stereo not shown) [(4-chlorophenyl)-carbamic acid, 3-(hexahydro-3-ethyl-1-methyl-2-oxo-1H-azepin-3-yl) 2 phenyl ester], the “Reverse transcriptase data, continued test” value was “data remained consistent”, the Reverse transcriptase data (7 μg/ml, Day 4) was 1643 and the Reverse transcriptase data (7 μg/ml, Day 11) was 1294. For the same molecule, the Reverse transcriptase data (7 μg/ml, Day 18) was 1521, the Reverse transcriptase data (7 μg/ml, Day 25) was 1725 and the Reverse transcriptase data (7 μg/ml, Day 32) was 1239. For the same molecule, the Reverse transcriptase data (7 μg/ml, Day 39) was 1341, the Reverse transcriptase data (7 μg/ml, Day 46) was 1694 and the Reverse transcriptase data (7 μg/ml, Day 53) was 1287. It also gave a Reverse transcriptase data (7 μg/ml, Day 60) of 1631, a Reverse transcriptase data (7 μg/ml, Day 67) of 1245 and a Reverse transcriptase data (7 μg/ml, Day 71) of 1483. It also gave a Reverse transcriptase data (7 μg/ml, Day 74) of 1502, a Reverse transcriptase data (7 μg/ml, Day 88) of 7383 and a Reverse transcriptase data (7 μg/ml, Day 95) of 5512. For the same molecule, the Reverse transcriptase data (7 μg/ml, Day 102) was 8512, the Reverse transcriptase data (7 μg/ml, Day 109) was 58104 and the Reverse transcriptase data (15 μg/ml, Day 4) was 1526. For the same molecule, the Reverse transcriptase data (15 μg/ml, Day 11) was 1168, the Reverse transcriptase data (15 μg/ml, Day 18) was 1241 and the Reverse transcriptase data (15 μg/ml, Day 25) was 1361. For the same molecule, the Reverse transcriptase data (15 μg/ml, Day 32) was 1168, the Reverse transcriptase data (15 μg/ml, Day 39) was 1162 and the Reverse transcriptase data (15 μg/ml, Day 46) was 1084. The Reverse transcriptase data (15 μg/ml, Day 53) was 902, the Reverse transcriptase data (15 μg/ml, Day 60) was 1310 and the Reverse transcriptase data (15 μg/ml, Day 67) was 1093. The Reverse transcriptase data (15 μg/ml, Day 71) was 1056, the Reverse transcriptase data (15 μg/ml, Day 74) was 763 and the Reverse transcriptase data (15 μg/ml, Day 88) was 4415. It also gave a Reverse transcriptase data (15 μg/ml, Day 95) of 3205, a Reverse transcriptase data (15 μg/ml, Day 102) of 6902 and a Reverse transcriptase data (15 μg/ml, Day 109) of 60170. The Reverse transcriptase data (30 μg/ml, Day 4) was 602, the Reverse transcriptase data (30 μg/ml, Day 11) was 265 and the Reverse transcriptase data (30 μg/ml, Day 18) was 581. For the same molecule, the Reverse transcriptase data (30 μg/ml, Day 25) was 496, the Reverse transcriptase data (30 μg/ml, Day 32) was 268 and the Reverse transcriptase data (30 μg/ml, Day 39) was 381. The Reverse transcriptase data (30 μg/ml, Day 46) was 562, the Reverse transcriptase data (30 μg/ml, Day 53) was 308 and the Reverse transcriptase data (30 μg/ml, Day 60) was 241. For the same molecule, the Reverse transcriptase data (30 μg/ml, Day 67) was 301, the Reverse transcriptase data (30 μg/ml, Day 71) was 321 and the Reverse transcriptase data (30 μg/ml, Day 74) was 202. For the same molecule, the Reverse transcriptase data (30 μg/ml, Day 88) was 370, the Reverse transcriptase data (30 μg/ml, Day 95) was 299 and the Reverse transcriptase data (30 μg/ml, Day 102) was 928. It also gave a Reverse transcriptase data (30 μg/ml, Day 109) of 2019.
